#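 Tested at 5 concentrations; 48 h exposure; 96-well plates; endpoints linearly interpolated, else capped at highest concentration. Here, GI50 denotes the concentration required for 50% inhibition of growth. TGI: concentration producing complete growth inhibition.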
# Experiments:
# Test in all cases: NCI tumour cell line growth inhibition, 48 h
# 786-0 renal = tested on: 786-0 renal
# A498 renal = tested on: A498 renal
# A549 NSCLC = tested on: A549 NSCLC
# ACHN renal = tested on: ACHN renal
# BT-549 breast = tested on: BT-549 breast
# CAKI-1 renal = tested on: CAKI-1 renal
# COLO 205 colon = tested on: COLO 205 colon
# DU-145 prostate = tested on: DU-145 prostate
# EKVX NSCLC = tested on: EKVX NSCLC
# HCC-2998 colon = tested on: HCC-2998 colon
# HCT-116 colon = tested on: HCT-116 colon
# HCT-15 colon = tested on: HCT-15 colon
# HOP-62 NSCLC = tested on: HOP-62 NSCLC
# HOP-92 NSCLC = tested on: HOP-92 NSCLC
# HS 578T breast = tested on: HS 578T breast
# HT29 colon = tested on: HT29 colon
# IGROV1 ovarian = tested on: IGROV1 ovarian
# K-562 leukemia = tested on: K-562 leukemia
# KM12 colon = tested on: KM12 colon
# LOX IMVI melanoma = tested on: LOX IMVI melanoma
# M14 melanoma = tested on: M14 melanoma
# MCF7 breast = tested on: MCF7 breast
# MDA-MB-231 breast = tested on: MDA-MB-231 breast
# MDA-MB-435 = tested on: MDA-MB-435
# MOLT-4 leukemia = tested on: MOLT-4 leukemia
# NCI-H226 lung = tested on: NCI-H226 lung
# NCI-H23 lung = tested on: NCI-H23 lung
# NCI-H460 lung = tested on: NCI-H460 lung
# NCI-H522 lung = tested on: NCI-H522 lung
# NCI/ADR-RES ovarian = tested on: NCI/ADR-RES ovarian
# OVCAR-3 ovarian = tested on: OVCAR-3 ovarian
# OVCAR-4 ovarian = tested on: OVCAR-4 ovarian
# OVCAR-5 ovarian = tested on: OVCAR-5 ovarian
# OVCAR-8 ovarian = tested on: OVCAR-8 ovarian
# PC-3 prostate = tested on: PC-3 prostate
# RPMI-8226 leukemia = tested on: RPMI-8226 leukemia
# RXF 393 renal = tested on: RXF 393 renal
# SF-268 CNS = tested on: SF-268 CNS
# SF-295 CNS = tested on: SF-295 CNS
# SK-MEL-2 melanoma = tested on: SK-MEL-2 melanoma
# SK-MEL-28 melanoma = tested on: SK-MEL-28 melanoma
# SK-MEL-5 melanoma = tested on: SK-MEL-5 melanoma
# SK-OV-3 ovarian = tested on: SK-OV-3 ovarian
# SN12C renal = tested on: SN12C renal
# SNB-19 CNS = tested on: SNB-19 CNS
# SNB-75 CNS = tested on: SNB-75 CNS
# SW-620 colon = tested on: SW-620 colon
# T-47D breast = tested on: T-47D breast
# TK-10 renal = tested on: TK-10 renal
# U251 CNS = tested on: U251 CNS
# UACC-257 melanoma = tested on: UACC-257 melanoma
# UACC-62 melanoma = tested on: UACC-62 melanoma
# UO-31 renal = tested on: UO-31 renal
# CCRF-CEM leukemia = tested on: CCRF-CEM leukemia
# SF-539 CNS = tested on: SF-539 CNS
# SR leukemia = tested on: SR leukemia
smiles,measurement,setting,value
CC(=O)OCCCC#CC#Cc1cccc(=O)o1,GI50,786-0 renal,19 µM
same,TGI,786-0 renal,35.1 µM
same,GI50,A498 renal,23.9 µM
same,TGI,A498 renal,39.4 µM
same,GI50,A549 NSCLC,20.4 µM
same,TGI,A549 NSCLC,42.9 µM
same,GI50,ACHN renal,19.2 µM
same,TGI,ACHN renal,35 µM
same,GI50,BT-549 breast,10.6 µM
same,TGI,BT-549 breast,26.6 µM
same,GI50,CAKI-1 renal,13.6 µM
same,TGI,CAKI-1 renal,28.3 µM
same,GI50,COLO 205 colon,19.4 µM
same,TGI,COLO 205 colon,41.8 µM
same,GI50,DU-145 prostate,11.7 µM
same,TGI,DU-145 prostate,26.8 µM
same,GI50,EKVX NSCLC,16.9 µM
same,TGI,EKVX NSCLC,36.4 µM
same,GI50,HCC-2998 colon,16.6 µM
same,TGI,HCC-2998 colon,33.2 µM
same,GI50,HCT-116 colon,14.6 µM
same,TGI,HCT-116 colon,29.1 µM
same,GI50,HCT-15 colon,11.7 µM
same,TGI,HCT-15 colon,25.7 µM
same,GI50,HOP-62 NSCLC,15.5 µM
same,TGI,HOP-62 NSCLC,30.4 µM
same,GI50,HOP-92 NSCLC,19.8 µM
same,TGI,HOP-92 NSCLC,37.8 µM
same,GI50,HS 578T breast,25.8 µM
same,TGI,HS 578T breast,56.7 µM
same,GI50,HT29 colon,24.9 µM
same,TGI,HT29 colon,71.5 µM
same,GI50,IGROV1 ovarian,18.7 µM
same,TGI,IGROV1 ovarian,> 100 µM
same,GI50,K-562 leukemia,5.38 µM
same,TGI,K-562 leukemia,28.9 µM
same,GI50,KM12 colon,16 µM
same,TGI,KM12 colon,30.9 µM
same,GI50,LOX IMVI melanoma,15.8 µM
same,TGI,LOX IMVI melanoma,54 µM
same,GI50,M14 melanoma,17.8 µM
same,TGI,M14 melanoma,36.5 µM
same,GI50,MCF7 breast,20.3 µM
same,TGI,MCF7 breast,43.5 µM
same,GI50,MDA-MB-231 breast,13.7 µM
same,TGI,MDA-MB-231 breast,29 µM
same,GI50,MDA-MB-435,16 µM
same,TGI,MDA-MB-435,31.4 µM
same,GI50,MOLT-4 leukemia,6.59 µM
same,TGI,MOLT-4 leukemia,> 100 µM
same,GI50,NCI-H226 lung,20.8 µM
same,TGI,NCI-H226 lung,52.8 µM
same,GI50,NCI-H23 lung,15.8 µM
same,TGI,NCI-H23 lung,33 µM
same,GI50,NCI-H460 lung,20 µM
same,TGI,NCI-H460 lung,42.2 µM
same,GI50,NCI-H522 lung,32.1 µM
same,TGI,NCI-H522 lung,> 100 µM
same,GI50,NCI/ADR-RES ovarian,39.6 µM
same,TGI,NCI/ADR-RES ovarian,> 100 µM
same,GI50,OVCAR-3 ovarian,2.89 µM
same,TGI,OVCAR-3 ovarian,14.2 µM
same,GI50,OVCAR-4 ovarian,24.9 µM
same,TGI,OVCAR-4 ovarian,56.1 µM
same,GI50,OVCAR-5 ovarian,22.3 µM
same,TGI,OVCAR-5 ovarian,42.4 µM
same,GI50,OVCAR-8 ovarian,29.4 µM
same,TGI,OVCAR-8 ovarian,86.4 µM
same,GI50,PC-3 prostate,18.4 µM
same,TGI,PC-3 prostate,44.4 µM
same,GI50,RPMI-8226 leukemia,4.19 µM
same,TGI,RPMI-8226 leukemia,20.3 µM
same,GI50,RXF 393 renal,24.3 µM
same,TGI,RXF 393 renal,43.8 µM
same,GI50,SF-268 CNS,19.4 µM
same,TGI,SF-268 CNS,41.1 µM
same,GI50,SF-295 CNS,17.8 µM
same,TGI,SF-295 CNS,32.7 µM
same,GI50,SK-MEL-2 melanoma,40 µM
same,TGI,SK-MEL-2 melanoma,> 100 µM
same,GI50,SK-MEL-28 melanoma,23.9 µM
same,TGI,SK-MEL-28 melanoma,55.8 µM
same,GI50,SK-MEL-5 melanoma,16.1 µM
same,TGI,SK-MEL-5 melanoma,32.6 µM
same,GI50,SK-OV-3 ovarian,33.8 µM
same,TGI,SK-OV-3 ovarian,> 100 µM
same,GI50,SN12C renal,19 µM
same,TGI,SN12C renal,39.7 µM
same,GI50,SNB-19 CNS,25.6 µM
same,TGI,SNB-19 CNS,67.7 µM
same,GI50,SNB-75 CNS,29.1 µM
same,TGI,SNB-75 CNS,67.2 µM
same,GI50,SW-620 colon,13.6 µM
same,TGI,SW-620 colon,37.5 µM
same,GI50,T-47D breast,20 µM
same,TGI,T-47D breast,51.1 µM
same,GI50,TK-10 renal,13 µM
same,TGI,TK-10 renal,26.4 µM
same,GI50,U251 CNS,23.9 µM
same,TGI,U251 CNS,54.3 µM
same,GI50,UACC-257 melanoma,23.8 µM
same,TGI,UACC-257 melanoma,55.6 µM
same,GI50,UACC-62 melanoma,14.6 µM
same,TGI,UACC-62 melanoma,28.9 µM
same,GI50,UO-31 renal,3.52 µM
same,TGI,UO-31 renal,> 100 µM
CCCc1cn2c(/C=N/N=C(N)N)c(-c3ccc(Cl)c([N+](=O)[O-])c3)nc2s1,TGI,A498 renal,3.2 µM
same,TGI,ACHN renal,3.06 µM
same,TGI,BT-549 breast,3.08 µM
same,TGI,CAKI-1 renal,3.28 µM
same,TGI,CCRF-CEM leukemia,0.375 µM
same,TGI,DU-145 prostate,3.15 µM
same,TGI,HCT-15 colon,3.07 µM
same,TGI,HT29 colon,2.04 µM
same,TGI,MDA-MB-435,3.21 µM
same,TGI,MOLT-4 leukemia,0.546 µM
same,TGI,NCI/ADR-RES ovarian,4.95 µM
same,TGI,OVCAR-4 ovarian,2.28 µM
same,TGI,OVCAR-5 ovarian,2.89 µM
same,TGI,PC-3 prostate,3.53 µM
same,TGI,SF-295 CNS,3.1 µM
same,TGI,SF-539 CNS,3.31 µM
same,TGI,SK-MEL-28 melanoma,3.1 µM
same,TGI,SK-OV-3 ovarian,2.86 µM
same,TGI,SN12C renal,3.33 µM
same,TGI,SNB-75 CNS,3.12 µM
same,TGI,SR leukemia,2.75 µM
same,TGI,TK-10 renal,2.91 µM
same,TGI,UACC-62 melanoma,3.38 µM
